Key:
[1] = tested on: Male Wistar rats; experiment: behavioural effects (activity score, WDS, locomotion) after i.p. administration; type: in vivo, rat; conditions: i.p.
Description: Methods: Behavioural studies were conducted using experimentally naïve Male Wistar rats (200-250 g) maintained in a temperature controlled (21° C.), artificially-lighted (12 hr light cycle) room with free access to food and water. Behavioural effects of TRH±TRH-DE inhibitor following intraperitoneal (i.p.) administration: On the day of the experiment, animals were singly housed in perspex cages (30×20×20 cm) and allowed to acclimatize for 20 min. After this period, two baseline measurements of behaviour were made at 10 and 5 min prior to administration of drugs. […] Animals were then observed by two independent observers who were blind to treatment, every 5 min for 30 sec. Blocks of 5 animals were treated at a time, 1 per drug group. Blocks were repeated 5 times. The occurrence of individual behaviours were noted using a behavioural check list, which included grooming, locomotion, rearing, chewing, sniffing, head weave, tail elevation, and/or straub tail and WDS behaviours. These behaviours were summed to yield an overall activity count. Animals were videotaped for separate subsequent analysis of WDS. All WDS behaviours occurring during each 5 min interval after drug administration were counted. The statistical significance of differences between behavioural effects of treatments was determined using the Student's t-test or ANOVA, followed by a post-ANOVA test, as indicated. Radioligand binding data were analysed using non-linear curve fitting software (Prism, Graph Pad Software Inc.). IC50 values calculated from competition experiments were converted to Ki values using the Cheng-Prusoff (41) equation Ki=IC50/(1+L/Kd), where L=ligand concentration and Kd=the apparent dissociation constant for [^3[…].

[2] = target: T1, TRH-DE (Sus scrofa, UniProt A0A287AP33); experiment: HPLC assay of peptide hydrolysis by TRH-DE (Glp production); type: biochemical, porcine; conditions: for hydrolysis by TRH-DE (release of Glp): 1 mM peptide incubated with TRH-DE 18 h at 37° C., HPLC
T1 construct: The inventor purified TRH-DE from porcine brain according to purification procedures previously published by Dr. K. Bauer; from tissue; host or cells: porcine brain (TRH-DE); bovine kidney (DPP-IV, gift from Dr. C. H. Williams)
Description: The inventor purified TRH-DE from porcine brain according to purification procedures previously published by Dr. K. Bauer, (Max-Planck-Institut, Hannover, Germany) (1). TRH-DE was purified almost 20,000 fold. […] Dipeptidyl peptidase IV (DPP-IV) (EC 3.4.14.5), purified from bovine kidney (7.7 mg ml^−1, specific activity of 17.5 U mg^−1 with Gly-ProAMC as substrate), was obtained as a gilt from Dr. C. H. Williams (Queen's University Belfast, U.K). (DPP-IV was used as the coupling enzyme used in the fluorometric assays).
One unit (U) of enzyme activity was defined as that amount catalysing the formation of one μmol of product in one minute under the standard conditions employed. All incubations in the assays described below were carried out in 20 mM potassium phosphate buffer, pH 7.5, at 37° C.
Kinetic analysis of the peptide library using HPLC—The ability of each peptide in the library to act as a TRH-DE substrate was assessed using HPLC. As an initial screen, 1 mM peptide was incubated with 0.8 μg TRH-DE in a total volume of 1 ml for 18 h at 37° C. Control samples were included in which peptide (1 mM) or Glp (0.2 mM-0.8 mM) were incubated under identical conditions in the absence of TRH-DE. TRH-DE activity was terminated by the addition of TFA (0.15% v/v) and samples were then analysed using HPLC as described previously (24). Products resulting from TRH-DE hydrolysis could be separated on a C-18 reverse-phase column (Hypersil, UK) using a linear gradient of 0-70% acetonitrile in 0.08% (v/v) TFA. The concentration of Glp formed by the action of TRH-DE on the peptide library was measured by UV absorbance at 206 nm with a quantitative detection limit of 0.1 mM for a 40 μl injection volume, employing a signal to noise ratio of 10. Following the incubation of each peptide with TRH-DE, evidence of Glp in the sample was taken to indicate that the peptide was a TRH-DE substrate.
The rates of hydrolysis for each of those peptides identified as substrates were then compared by measuring Gip production using microassays with shorter incubation times. In these assays peptide (1 mM) was incubated at 37° C. in a total volume of 100 μl. 0.8-3.2 μg TRH-DE and incubations times of 5 min to 18 h were used routinely. Measurements were made in triplicate. The rate of TRH-OH hydrolysis was also measured by this method.

[3] = target: T1, TRH-DE; conditions: From Ref. 23 (inventor's publication); cited from earlier work
[4] = target: TRH receptors in rat cortical membranes; experiment: radioligand binding to ^3H-3MeHis-TRH-labelled receptors in rat cortex; conditions: competition with 6-8 nM ^3H-3MeHis-TRH, Cheng-Prusoff
Description: Evaluation of the ability of TRH, Glp-Asn-ProNH2, and Glp-Asn-ProAMC to bind to ^3H-3MeHis-TRH-labelled receptors in rat cortex: Radioligand binding assays were conducted to investigate the possibility that the two TRH-DE inhibitors might exert their effects by acting independently at TRH receptors in the brain.
Cortex tissue from male Sprague-Dawley rats (250 g) was dissected out, weighed and homogenised in 30 volumes of ice-cold sodium phosphate buffer (0.02 M, pH 7.5). The homogenates were centrifuged at 30,000 g at 4° C. for 30 min. The supernatant was discarded and the pellet was resuspended at 100 mg wet wt/ml in buffer containing 177 μM bacitracin. […] Non-specific binding was defined in the presence of 10 μM TRH.
The statistical significance of differences between behavioural effects of treatments was determined using the Student's t-test or ANOVA, followed by a post-ANOVA test, as indicated. Radioligand binding data were analysed using non-linear curve fitting software (Prism, Graph Pad Software Inc.). IC50 values calculated from competition experiments were converted to Ki values using the Cheng-Prusoff (41) equation Ki=IC50/(1+L/Kd), where L=ligand concentration and Kd=the apparent dissociation constant for [^3H]-[3-MeHis]TRH.

[5] = tested on: Male Wistar rats; experiment: behavioural effects (WDS, locomotion) after i.c.v. administration; type: in vivo, rat; conditions: 30 min
Description: Methods: Behavioural studies were conducted using experimentally naïve Male Wistar rats (200-250 g) maintained in a temperature controlled (21° C.), artificially-lighted (12 hr light cycle) room with free access to food and water. Behavioural effects of […] following intra-cerebroventricular (i.c.v.) administration: Animals were implanted with guide cannula aimed at the lateral cerebral ventricles (AP-0.92 mm, ML-1.5 mm, DV-2.6 mm relative to Bregma, atlas of Paxinos & Watson) under halothane anaesthesia. One week following surgery placement of the cannulae was assessed by the ability of a microinjection of angiotensin II (200 ng in 1 μl) to induce drinking behaviour. […] They were then administered either vehicle (1 μl 0.9% saline) or […] (5 μg in 1 μl) followed 1 minute later by vehicle (1 μl 0.9% saline) or TRH (5 μg in 1 μl). One minute after the last i.c.v. injection animals were placed back into the perspex cage and their behaviour monitored by a computer automated tracking system for 30 minutes (Ethovision Pro, Noldus) to provide measures of locomotor activity. Animals were videotaped for subsequent blind analysis of WDS behaviour by a trained observer. A threshold dose of 5 μg TRH was chosen for i.c.v. administration so that if […] enhanced responses to TRH, this would be clearly visible. The statistical significance of differences between behavioural effects of treatments was determined using the Student's t-test or ANOVA, followed by a post-ANOVA test, as indicated. Radioligand binding data were analysed using non-linear curve fitting software (Prism, Graph Pad Software Inc.). IC50 values calculated from competition experiments were converted to Ki values using the Cheng-Prusoff (41) equation Ki=IC50/(1+L/Kd), where L=ligand concentration and Kd=the apparent dissociation constant for [^3[…].

T1 sequence (A0A287AP33 1-1066): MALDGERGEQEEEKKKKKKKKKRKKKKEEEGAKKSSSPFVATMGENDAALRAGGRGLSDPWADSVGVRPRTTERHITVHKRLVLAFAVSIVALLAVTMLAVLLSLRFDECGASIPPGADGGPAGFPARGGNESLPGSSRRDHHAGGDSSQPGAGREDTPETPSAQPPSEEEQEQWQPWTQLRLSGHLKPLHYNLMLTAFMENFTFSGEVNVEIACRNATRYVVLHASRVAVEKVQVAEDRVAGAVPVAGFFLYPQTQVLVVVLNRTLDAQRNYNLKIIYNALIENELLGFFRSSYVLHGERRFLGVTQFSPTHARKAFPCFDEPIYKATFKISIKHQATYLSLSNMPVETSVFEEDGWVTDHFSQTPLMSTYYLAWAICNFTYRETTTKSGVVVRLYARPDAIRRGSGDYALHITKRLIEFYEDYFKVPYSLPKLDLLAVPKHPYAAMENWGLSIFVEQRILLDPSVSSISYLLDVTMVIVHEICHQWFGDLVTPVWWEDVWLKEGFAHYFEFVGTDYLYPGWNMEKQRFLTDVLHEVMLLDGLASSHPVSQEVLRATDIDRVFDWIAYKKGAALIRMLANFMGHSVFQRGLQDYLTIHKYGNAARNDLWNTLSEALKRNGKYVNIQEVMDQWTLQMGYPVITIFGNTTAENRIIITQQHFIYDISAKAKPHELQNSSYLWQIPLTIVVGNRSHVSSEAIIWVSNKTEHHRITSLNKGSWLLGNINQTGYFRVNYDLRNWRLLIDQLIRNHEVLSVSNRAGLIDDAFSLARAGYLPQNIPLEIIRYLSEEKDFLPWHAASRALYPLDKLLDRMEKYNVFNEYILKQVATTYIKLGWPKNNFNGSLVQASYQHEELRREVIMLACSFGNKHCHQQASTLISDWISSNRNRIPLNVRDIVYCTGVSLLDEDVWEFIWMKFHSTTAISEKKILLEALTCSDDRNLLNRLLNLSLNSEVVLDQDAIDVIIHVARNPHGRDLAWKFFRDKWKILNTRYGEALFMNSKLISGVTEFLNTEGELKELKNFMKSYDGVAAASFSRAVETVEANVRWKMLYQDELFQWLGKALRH

NC(=O)[C@@H]1CCCN1C(=O)[C@H](Cc1cnc[nH]1)NC(=O)[C@@H]1CCC(=O)N1 [Glp-His-ProNH2, L-pyroglutamyl-L-histidyl-L-prolineamide]
individual behaviours contributing to the activity score ([1]; 10 mg/kg): primarily promoted grooming, sniffing, and chewing behaviours | rat activity scores compared with saline ([1]; 10 mg/kg each, 40 min post injection): increase in rat activity scores throughout the 40 min period post injection | decline of behavioural responses with time ([1]; 10 mg/kg each, late observation period): tended to decline 35 min after i.p. administration | induction of WDS ([1]; 10 mg/kg, 40 min observation): immediate induction of WDS in all animals with the response gradually declining to zero after 40 min | hydrolysis by TRH-DE (release of Glp) [2]: degraded fully | hydrolysis by TRH-DE (release of Glp) ([2]; listed as TRH): no TRH (RT 8.566 min) remained | Vmax ([2]; estimated from HPLC rates of hydrolysis using Vmax=vo{(Km+[S])/[S]}): 2.63 ± 0.26 (11) U mg^−1 | Rate of hydrolysis ([2]; peptide 1 mM, 37° C., Glp production by HPLC, mean±S.D.): 2.54 ± 0.25 (11) U mg^−1 | Km [3]: 35 µM | pKi [4]: 7.65±0.17 | number of WDS compared with vehicle ([5]; 5 μg alone): Neither TRH nor Glp-Asn-ProAMC alone produced a significantly greater number of WDS than vehicle | number of WDS during the observation period ([5]; TRH 5 μg ± Glp-Asn-ProAMC 5 μg, mean±S.E., n=6): 3.33±1.23 WDS/30 min

— patent US7378397B2 (The Provost, Fellows and Scholars of the College of the …, priority 2000, dated 2008)
